Consider one compound from publication doi:10.1101/119818v1 (biorxiv, 2017).

Structures are written as SMILES.

In the test the target is T1, PARP3 (Homo sapiens, UniProt Q9Y6F1).
T1 sequence (Q9Y6F1 1-533): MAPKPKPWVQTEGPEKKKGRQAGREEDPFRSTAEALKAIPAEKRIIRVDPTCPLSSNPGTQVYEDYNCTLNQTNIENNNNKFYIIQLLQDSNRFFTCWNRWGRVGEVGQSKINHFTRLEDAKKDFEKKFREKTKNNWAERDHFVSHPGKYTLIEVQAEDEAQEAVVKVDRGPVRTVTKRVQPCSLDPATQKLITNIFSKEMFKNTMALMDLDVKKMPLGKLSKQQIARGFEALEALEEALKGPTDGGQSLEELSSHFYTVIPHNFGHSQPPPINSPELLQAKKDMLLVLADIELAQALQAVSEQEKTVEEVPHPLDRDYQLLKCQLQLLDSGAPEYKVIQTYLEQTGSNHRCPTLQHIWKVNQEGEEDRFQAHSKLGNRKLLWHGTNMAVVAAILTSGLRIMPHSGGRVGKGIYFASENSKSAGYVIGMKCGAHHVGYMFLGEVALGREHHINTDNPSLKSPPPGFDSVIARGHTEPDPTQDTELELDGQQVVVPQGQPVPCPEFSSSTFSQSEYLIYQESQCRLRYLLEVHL
Put plainly: in vitro enzymatic inhibition assay, concentration response. Format: biochemical.

For orientation: IC50 means the concentration that gives 50% inhibition. Read a low IC50 as inhibition by little substance. The compound `NC(=O)c1cccc2[nH]c(-c3ccc([C@@H]4CCCN4)cc3F)nc12` [A-966492] displayed an IC50 of 728 nM.
